Assays:
[1] = prior art amino acid; cited from earlier work
[2] = Light-induced isomerization of Caf, analysis by HPLC; format: physicochemical; conditions: for isomer composition after irradiation with green light (HPLC): green LED light, λ=520 nm, after UV irradiation; for isomer composition before irradiation (HPLC): ground state, prior to irradiation
Description: 500 μl of a 60 μM solution of Caf (7) in water was placed in a 1.5 ml HPLC vial (Screw neck vial N9, amber glass, 11.6×32 mm; Macherey Nagel, Duren, Germany) and irradiated with a UV LED (λ=353 nm, NS355L-5RLO; Nitride Semiconductors, Tokushima, Japan) for 30 min directly from the top. Before and after irradiation, a 20 μl sample of the solution was withdrawn and analyzed by HPLC on a Purospher RP-8e 250×3 mm column (Merck), applying a concentration gradient of 10-12% acetonitrile (ACN) in 50 mM NH4OAc buffer pH 8 over 10 min (flow rate 0.6 ml/min). Another sample was analyzed in the same manner after irradiation with green LED light (λ=520 nm, LL-504PGC2E-G5-2CC, Lucky Light Electronics, Hongkong, China). […] The chromatograms reveal that the cis and trans isomers of (7) can be separated by HPLC (cis-(7) tR=3.6 min, trans-(7) tR=4.6 min). […] However, it should be taken into account that also during HPLC analysis reisomerization of cis-(7) to trans-(7) takes place, so the proportion of cis-(7) after irradiation with UV light might actually be higher than indicated by HPLC chromatograms. Thus, if the light-switchable polypeptide of the present invention is applied for an affinity chromatography procedure, and the trans configuration corresponds to the high affinity state whereas the cis configuration corresponds to the low affinity conformation, then the highest degree of binding and the highest degree of elution of the molecule of interest takes place at 430 nm and 330 nm, respectively. However, conventional light sources usually provide light having wavelengths that are around 530 nm (visible light) and 365 nm (UV light). Therefore, also light providing these wavelengths (i.e. around 530 nm and/or around 365 nm) may be used in accordance with the present invention.

[3] = Light-induced isomerization of Caf, analysis by UV-VIS spectroscopy; format: physicochemical; conditions: 30 μM aqueous solution; alternating UV and green LED irradiation over 3 cycles
Text: The electronic transition π→π* is usually in the near UV region around 340 nm (Sension et al. 1993 J. Chem. Phys. 98: 6291-6315) whereas the electronic transition n→π* is usually located in the visible (VIS) region around 420 nm and is due to the presence of unshared electron pairs of the nitrogen atoms (Naegele et al. 1997 Chem. Phys. Lett. 272: 489-495). To examine whether the synthesized non-natural amino acid Caf (7) can respond to photoswitching induced by UV light, the compound was subjected to alternating irradiation cycles. In a typical experiment, 0.5 ml of a 30 μM aqueous solution was placed in a quartz cuvette with 1 cm optical pathlength. Then the sample was irradiated for 30 min from the top using a UV LED (NS355L-5RLO; Nitride Semiconductors, Tokushima, Japan) with 353 nm or a green LED (LL-504PGC2E-G5-2CC; Lucky Light Electronics, Hongkong, China) with 520 nm emitting wavelength. The change in intensity of the π-π* band at around 340 nm corresponding to the trans/cis isomerization (FIG. 4A) was monitored with a computer controlled photometer (Ultrospec 2100 pro, Amersham Biosciences).

[4] = Solubility in water and culture medium; format: physicochemical; conditions: physiological pH

Compound | solubility in water as well as culture media [1] | isomer composition after irradiation with UV light (HPLC) ([2]; after irradiation with UV light) | proportion of cis-(7) ([2]; after irradiation with UV light for 30 min, 60 μM in water, HPLC at 286 nm) | isomer composition after irradiation with green light (HPLC) [2] | isomer composition after irradiation with green light (HPLC) ([2]; listed as 7) | isomer composition before irradiation (HPLC) [2] | isomer composition before irradiation (HPLC) ([2]; listed as 7) | photoswitching between trans and cis configuration (absorbance at about 340 nm) [3] | solubility in water and LB culture medium [4]
N[C@@H](Cc1ccc(N=Nc2ccccc2)cc1)C(=O)O [AzoPhe] | extremely poor solubility |  |  |  |  |  |  |  | 
N[C@@H](Cc1ccc(N=Nc2ccc(C(=O)O)cc2)cc1)C(=O)O [Caf, 4-[(4-carboxyphenyl)azo]-L-phenylalanine] |  | mostly cis isomer | up to 86% | recovering the ground state | mostly trans isomer | only energetically favored trans-(7) | essentially pure trans isomer | reversible photoswitching | good solubility
N[C@@H](Cc1ccc(N=Nc2cccc(C(=O)O)c2)cc1)C(=O)O [3′-carboxyphenylazophenylalanine, 4-[(3-Carboxyphenyl)azo]-L-phenylalanine] |  |  |  |  |  |  |  |  | good solubility
